Entries after “also recorded” stand apart in the source; their conditions may differ. Where two headings read alike, the source gives them in different places.
Key:
mTRPV1 = target: T1, mTRPV1 (Mus musculus, UniProt Q704Y3); assay type: cell-based
T1 construct: expressed in transfected cells; host or cells: HEK293T
Method: (§1) Thus, electrophysiological tests on transient transfected TRPV1 were performed. […] To our knowledge, HEK293T cells have been reported to endogenously express acid-sensing ion channels (ASICs).
(§2) All patch clamp recordings were carried out at temperature 20 °C using an EPC-10 amplifier (HEKA Electronik, Lambrecht, Germany) according to the previous report. Recording pipettes were made from borosilicate glass capillary tubing, and their resistances were 3–5 MΩ when filled with internal solution. For mKv1.1 and mKv1.3 current recordings, the cells were held at −80 mV for 5 min after the whole-cell construction was established. All of the potassium current traces were elicited by a 300-ms depolarizing potential of 0 mV from a holding potential of −80 mV. The standard pipette solution contained (in mM): 140 KF, 4 MgCl2, 5 ATP-Na, 1 EGTA, and 10 HEPES, pH 7.3. The standard bath solution contained (in mM): 137 NaCl, 5.9 KCl, 2.2 CaCl2, 1.2 MgCl2, 14 glucose, and 10 HEPES, pH 7.3. For mice TRPV1 channel recordings, the pipette and bathing solution contained (in mM): 130 NaCl, 0.2 EDTA, and 3 HEPES, pH 7.2.
(§3) Experimental data of electrophysiological recordings were acquired and analyzed by using the Pulse program and Igor Pro. The data obtained in experiments involving animals were analyzed by GraphPad Prism 5 (GraphPad Software, Inc., San Diego, CA, USA). All of the data points are shown as the means ± S.E. n is presented as the number of experiments. Statistical analysis was carried out by Student’s t test, and * indicated a significant difference (p < 0.01).

Kv1.3 = system: Kv1.3; design: method as in PMID 11173083, PMID 10565809; conditions: ref [37],[38]; cited from earlier work
TRPV1 KO mice = assay type: in vivo; conditions: 500 µM, 10 μL intraplantar, left hind paw; 30 min recording; n = 10; vs saline
Method: (§4) Mice, C57BL/6J, were used as wild type (WT) in these experiments. TRPV1-KO mice were purchased from Model Animal Research Center of Nanjing University, China. All the experiments using animals were carried out in accordance with recommendations in the Guide for the Care and Use of Laboratory Animals of Kunming Institute of Zoology, Chinese Academy of Sciences. Experimental protocols using animals in this work were approved by the Institutional Animal Care and Use Committees at Kunming Institute of Zoology, Chinese Academy of Sciences (2014-204). All efforts were made to reduce the number of animals used and to minimize the suffering of animals.
(§5) Control mice were injected with the same volume of saline. Immediately after injection, the time of paw licking was recorded by digital video camera for 30 min.
as §3

Kv1.1 = system: Kv1.1; design: method as in PMID 11173083, PMID 10565809; conditions: ref [37],[38]; cited from earlier work
WT mice = assay type: in vivo, C57BL/6J; conditions: 10 μL intraplantar, left hind paw, 30 min recording, n = 10; for pain behavior (duration of paw licking/biting): 500 µM, vs saline; for pain behavior (paw licking), dose-response: different doses
Method: as §4, §5, §3

[1] = system: DRG neurons of TRPV1 KO mice; assay type: cell-based, mouse
Method: (§6) DRG neurons from WT or TRPV1 KO mice were acutely dissociated and maintained in short-term primary culture as previously described. DRGs were incubated in 5% CO2/95% air at 37 °C for 1–4 h prior to patch-clamp experiments. HEK293T cells were used for mKv1.1 or mKv1.3 expression. Cells were grown under standard tissue culture conditions (5% CO2, 37 °C) in DMEM supplemented with 10% fetal bovine serum. Cells were transfected with DNA mixture (channel constructs and a green fluorescent protein (GFP) reporter plasmid) using lipofectamine 2000 transfection reagent (Invitrogen, Carlsbad, CA, USA) following the manufacturer’s instructions and used for electrophysiology 24–48 h after transfection. Cells with GFP fluorescence were selected for patch-clamp recordings […] after transfection.
as §2
as §3, with “Statistical analysis was carried out by Student’s t test, and * indicated a significant difference (p < 0.01).” left out

DRG neurons of WT mice = assay type: cell-based, mouse; conditions: 10 µM; DRG neurons 20 µm ≤ cell ≤ 35 µm; 20 °C
Method: as §6, §2
as §3, with “Statistical analysis was carried out by Student’s t test, and * indicated a significant difference (p < 0.01).” left out

native HEK293T cells = assay type: cell-based; conditions: negative for TRPV1, 20 °C, endogenous ASICs
Method: as §1, §2, §3

TRPV1 = conditions: cited from earlier work

T1 sequence (Q704Y3 whole entry): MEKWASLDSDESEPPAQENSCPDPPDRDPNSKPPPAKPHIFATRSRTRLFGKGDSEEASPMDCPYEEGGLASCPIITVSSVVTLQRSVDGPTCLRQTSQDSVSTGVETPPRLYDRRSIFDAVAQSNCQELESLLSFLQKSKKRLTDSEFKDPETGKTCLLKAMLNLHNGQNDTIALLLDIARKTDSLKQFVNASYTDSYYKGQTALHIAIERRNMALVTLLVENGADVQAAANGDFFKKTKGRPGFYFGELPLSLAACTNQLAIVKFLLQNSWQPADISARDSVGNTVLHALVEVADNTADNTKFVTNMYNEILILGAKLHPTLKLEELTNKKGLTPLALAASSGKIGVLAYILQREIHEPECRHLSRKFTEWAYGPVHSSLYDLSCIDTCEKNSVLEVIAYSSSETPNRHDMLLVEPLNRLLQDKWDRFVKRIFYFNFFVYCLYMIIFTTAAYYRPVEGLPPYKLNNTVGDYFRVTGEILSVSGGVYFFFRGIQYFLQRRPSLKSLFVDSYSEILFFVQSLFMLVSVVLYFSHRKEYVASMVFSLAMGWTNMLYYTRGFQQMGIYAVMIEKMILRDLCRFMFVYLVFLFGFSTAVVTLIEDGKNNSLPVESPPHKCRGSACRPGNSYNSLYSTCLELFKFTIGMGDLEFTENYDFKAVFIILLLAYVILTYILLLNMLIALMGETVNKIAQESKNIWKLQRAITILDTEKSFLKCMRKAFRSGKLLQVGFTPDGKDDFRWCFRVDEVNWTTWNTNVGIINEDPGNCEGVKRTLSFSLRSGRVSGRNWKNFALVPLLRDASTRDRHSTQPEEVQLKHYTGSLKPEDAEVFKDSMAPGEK

Compound | activation of TRPV1 (comparator agonists) (mTRPV1; HEK293T expressing mTRPV1, concentration not given, 20 °C) | inhibition of Kv1.3 (Kv1.3) | pain behavior (duration of paw licking/biting) (TRPV1 KO mice) | inhibition of Kv1.1 (Kv1.1) | pain behavior (duration of paw licking/biting) (WT mice) | pain behavior (paw licking), dose-response (WT mice) | pain behavior (paw licking), dose-response (WT mice; listed as Kaliotoxin) | normalized evoked currents, TRPV1 KO compared with WT DRG neurons [1] | evoked currents on DRG neurons (TRPV1 KO) ([1]; 10 µM, DRG neurons 20 µm ≤ cell ≤ 35 µm, 20 °C) | evoked currents on DRG neurons (WT) (DRG neurons of WT mice) | activation of TRPV1 (comparator agonists) (mTRPV1) | evoked currents in TRPV1-expressed HEK293T cells, ramp method (mTRPV1) | evoked currents in native HEK293T cells, ramp method (native HEK293T cells) | agonism on TRPV1 (TRPV1)
NCCOB(c1ccccc1)c1ccccc1 [2APB] | potently activated TRPV1 |  |  |  |  |  |  |  |  |  |  |  |  | 
kaliotoxin |  | potent inhibitor of Kv1.1 and Kv1.3 | only crude venom induced pain | potent inhibitor of Kv1.1 and Kv1.3 | unable to induce pain | did not induce pain | showed no significant pain behavior |  |  |  |  |  |  | 
COc1cc(CNC(=O)CCCC/C=C/C(C)C)ccc1O [capsaicin] |  |  |  |  | induced pain in WT mice | induced acute pain in a dose dependent manner |  | significantly higher in WT than TRPV1 KO mice; also recorded: significantly lower in TRPV1 KO mice than in WT mice | not TRPV1 KO mice; also recorded: did not evoke currents | effectively evoked the currents in DRG neurons of WT; also recorded: evoked the currents on DRG sensory neurons of WT mice | potently activated TRPV1 | evoked the currents in HEK293T cells with over-expressed TRPV1 channels | did not evoke the currents | well-known agonist of TRPV1

Reference: article PMC4591660 (Toxins, 2015)
